Measured values reported in patent US9598433B2, “Hepatitis C virus inhibitors” (BRISTOL-MYERS SQUIBB COMPANY, priority 2012, dated 2017).
Read-outs that look alike come from different tables or passages of the source.

How the values were obtained:
[1] = system: HCV genotype 1a (H77 strain) replicon in HUH-7 cells; test: HCV replicon luciferase reporter assay, genotype 1a; type: cell-based; conditions: Hepatitis C virus, 72 h, genotype 1a replicon, 3 days incubation
Text: (§1) An HCV replicon whole cell system was established as described by Lohmann V, Korner F, Koch J, Herian U, Theilmann L, Bartenschlager R., Science 285(5424):110-3 (1999) and modified to introduce a luciferase reporter, as first described by Krieger et al (Krieger N, Lohmann V, and Bartenschlager R, J. Virol. 75(10):4614-4624 (2001)). CDNA encoding a humanized form of the Renilla luciferase gene and a linker sequence fused directly to the 3′-end of the luciferase gene were introduced into the replicon construct using an Ascl restriction site located in core, directly upstream of the neomycin marker gene. The adaptive mutation at position 1179 (serine to isoleucine) was also introduced (Blight K J, Kolykhalov, A A, Rice, C M, Science 290(5498):1972-1974). A stable cell line constitutively expressing this HCV replicon construct was generated by first linearizing plasmid DNAs with ScaI. RNA transcripts were synthesized in vitro using the T7 MegaScript transcription kit (Ambion, Austin, Tex.) according to manufacturer's directions. In vitro transcripts of the cDNA were transfected into the human hepatoma cell line, HUH-7. […] Resulting cell lines were characterized for positive and negative strand RNA production and protein production over time.
A stable HCV replicon luciferase reporter cell line representing the genotype 1a H77 strain (Yanagi M, Purcell R H, Emerson S U, et al. Transcripts from a single full-length cDNA clone of hepatitis C virus are infectious when directly transfected into the liver of a chimpanzee. Proc Natl Acad Sci USA 1997; 94(16):8738-8743) was generated as described previously for the genotype 1b(Con1) replicon luciferase cell line. The replicon construct was modified by introducing mutations were introduced into the genes encoding the NS3 helicase domain (proline replaced by leucine at position 1496) and NS5A (serine to isoleucine at position 2204) to improve replication in cell culture.
(§2) HCV replicon luciferase assays were developed to monitor the inhibitory effects of compounds described in the disclosure on HCV genotypes 1a and 1b viral replication. HUH-7 cells, constitutively expressing the HCV replicon, were grown in Dulbecco's Modified Eagle Media (DMEM) (Gibco-BRL) containing 10% Fetal calf serum (FCS) (Sigma) and 1 mg/mL G418 (Gibco-BRL). Compounds were serially diluted 3 folds in DMSO for a twenty-point titration and subsequently transferred to sterile 384-well tissue-culture treated plates (Corning cat #3571). The plates were then seeded with 50 μL of cells at a density of 3.0×10^3 cells/well in DMEM containing 4% FCS (final DMSO concentration at 0.5%). After 3 days incubation at 37° C., cells were analyzed for Renilla Luciferase activity using the EnduRen as substrate (Promega cat #E6485). The EnduRen substrate was diluted in DMEM and then added to the plates to a final concentration of 7.5 μM. The plates were incubated for 2 hrs at 37° C. and then read immediately for 30 seconds with Viewlux Imager (PerkinElmer) using a luminescence program. To assess cytotoxicity of compounds, CC50 values were generated by multiplexing the EnduRen-containing plates with Cell Titer-Blue (Promega, cat # G8082). Cell-Titer Blue (3 μL) was added to each well and incubated for 8 hrs at 37° C. The fluorescence signal from each well was read, with an excitation wavelength at 525/10 nm and an emission wavelength of 598/10 nm, using the Viewlux Imager.
(§3) The EC50 values for compounds were calculated by using a four-parameter logistic equation: y=A+((B−A)/(1+((C/x)^D))), where A and B denotes minimal and maximal % inhibition, respectively, C is the EC50, D is the hill slope and x represents compound concentration.

[2] = system: HCV genotype 1b (Con1) replicon in HUH-7 cells; test: HCV replicon luciferase reporter assay, genotype 1b; type: cell-based; conditions: Hepatitis C virus, 72 h, genotype 1b replicon, 3 days incubation
Text: as §1, §2, §3

SMILES	EC50 ([1]; read-out: LE_1a (EC50)) [nM]	EC50 ([1]; read-out: LE_1a (EC50, range)) [nM]	EC50 ([2]; read-out: LE_1b (EC50)) [nM]	EC50 ([2]; read-out: LE_1b (EC50, range)) [nM]
CC[C@@H]1O[C@H](C)CC/C=C\[C@@H]2C[C@@]2(C(=O)NS(=O)(=O)C2(C)CC2)NC(=O)[C@@H]2C[C@@H](Oc3nccc4cc(OC)c(F)cc34)CN2C(=O)[C@H]1NC(=O)OC(C)(C)C(F)(F)F [Compound 1001]	1.26	1.01 to 5	0.47	0.1 to 0.5
CC[C@@H]1O[C@H](C)CC/C=C\[C@@H]2C[C@@]2(C(=O)NS(=O)(=O)C2(C)CC2)NC(=O)[C@@H]2C[C@@H](Oc3nc(OC)cc4cc(OC)ccc34)CN2C(=O)[C@H]1NC(=O)OC(C)(C)C(F)(F)F [Compound 1002, 1,1,1-trifluoro-2-methylpropan-2-yl ((2R,6S,7S,9R,13aS,14aR,16aS,Z)-2-((3,6-dimethoxyisoquinolin-1-yl)oxy)-7-ethyl-9-methyl-14a-(((1-methylcyclopropyl)sulfonyl)carbamoyl)-5,16-dioxo-2,3,5,6,7,9,10,11,13a,14,14a,15,16,16a-tetradecahydro-1H-cyclopropa[i]pyrrolo[1,2-e][1,5,8]oxadiazacyclopentadecin-6-yl)carbamate]	–	0.51 to 1	–	0.1 to 0.5
CC[C@@H]1O[C@H](C)CC/C=C\[C@@H]2C[C@@]2(C(=O)NS(=O)(=O)C2(C)CC2)NC(=O)[C@@H]2C[C@@H](Oc3ncc(OC)c4ccccc34)CN2C(=O)[C@H]1NC(=O)OC(C)(C)C(F)(F)F [Compound 1003]	–	0.51 to 1	–	0.1 to 0.5
CC[C@@H]1O[C@H](C)CC/C=C\[C@@H]2C[C@@]2(C(=O)NS(=O)(=O)C2CC2)NC(=O)[C@@H]2C[C@@H](Oc3ncc(OC)c4ccccc34)CN2C(=O)[C@H]1NC(=O)OC(C)(C)C(F)(F)F [Compound 1004, 1,1,1-trifluoro-2-methylpropan-2-yl ((2R,6S,7S,9R,13aS,14aR,16aS,Z)-14a-((cyclopropylsulfonyl)carbamoyl)-7-ethyl-2-((4-methoxyisoquinolin-1-yl)oxy)-9-methyl-5,16-dioxo-2,3,5,6,7,9,10,11,13a,14,14a,15,16,16a-tetradecahydro-1H-cyclopropa[i]pyrrolo[1,2-e][1,5,8]oxadiazacyclopentadecin-6-yl)carbamate]	–	0.51 to 1	–	0.1 to 0.5
CC[C@@H]1OCCC/C=C\[C@@H]2C[C@@]2(C(=O)NS(=O)(=O)C2(C)CC2)NC(=O)[C@@H]2C[C@@H](Oc3nccc4cc(OC)ccc34)CN2C(=O)[C@H]1NC(=O)OC(C)(C)C(F)(F)F [Compound 1005]	–	1.01 to 5	–	0.51 to 1
CC[C@@H]1O[C@H](C)CC/C=C\[C@@H]2C[C@@]2(C(=O)NS(=O)(=O)C2(C)CC2)NC(=O)[C@@H]2C[C@@H](Oc3nccc4cc(OC)ccc34)CN2C(=O)[C@H]1NC(=O)OC(C)(C)C(F)(F)F [Compound 1006]	–	1.01 to 5	–	0.1 to 0.5
CC[C@@H]1O[C@H](C)CC/C=C\[C@@H]2C[C@@]2(C(=O)NS(=O)(=O)C2CC2)NC(=O)[C@@H]2C[C@@H](Oc3nccc4cc(OC)ccc34)CN2C(=O)[C@H]1NC(=O)OC(C)(C)C(F)(F)F [Compound 1007, 1,1,1-trifluoro-2-methylpropan-2-yl ((2R,6S,7S,9R,13aS,14aR,16aS,Z)-14a-((cyclopropylsulfonyl)carbamoyl)-7-ethyl-2-((6-methoxyisoquinolin-1-yl)oxy)-9-methyl-5,16-dioxo-2,3,5,6,7,9,10,11,13a,14,14a,15,16,16a-tetradecahydro-1H-cyclopropa[i]pyrrolo[1,2-e][1,5,8]oxadiazacyclopentadecin-6-yl)carbamate]	–	1.01 to 5	–	0.51 to 1
CC[C@@H]1O[C@H](C)CC/C=C\[C@@H]2C[C@@]2(C(=O)NS(=O)(=O)C2CC2)NC(=O)[C@@H]2C[C@@H](Oc3nc(OC)cc4cc(OC)ccc34)CN2C(=O)[C@H]1NC(=O)OC(C)(C)C(F)(F)F [Compound 1008, 1,1,1-trifluoro-2-methylpropan-2-yl ((2R,6S,7S,9R,13aS,14aR,16aS,Z)-14a-((cyclopropylsulfonyl)carbamoyl)-2-((3,6-dimethoxyisoquinolin-1-yl)oxy)-7-ethyl-9-methyl-5,16-dioxo-2,3,5,6,7,9,10,11,13a,14,14a,15,16,16a-tetradecahydro-1H-cyclopropa[i]pyrrolo[1,2-e][1,5,8]oxadiazacyclopentadecin-6-yl)carbamate]	0.41	0.1 to 0.5	0.28	0.1 to 0.5
CC[C@@H]1OCCC/C=C\[C@@H]2C[C@@]2(C(=O)NS(=O)(=O)C2(C)CC2)NC(=O)[C@@H]2C[C@@H](Oc3nccc4cc(OC)c(F)cc34)CN2C(=O)[C@H]1NC(=O)OC(C)(C)C(F)(F)F [Compound 1009]	–	1.01 to 5	–	1.01 to 5
CC[C@@H]1OCCC/C=C\[C@@H]2C[C@@]2(C(=O)NS(=O)(=O)C2(C)CC2)NC(=O)[C@@H]2C[C@@H](Oc3nc(OC)cc4cc(OC)ccc34)CN2C(=O)[C@H]1NC(=O)OC(C)(C)C(F)(F)F [Compound 1010, 1,1,1-trifluoro-2-methylpropan-2-yl ((2R,6S,7S,13aS,14aR,16aS,Z)-2-((3,6-dimethoxyisoquinolin-1-yl)oxy)-7-ethyl-14a-(((1-methylcyclopropyl)sulfonyl)carbamoyl)-5,16-dioxo-2,3,5,6,7,9,10,11,13a,14,14a,15,16,16a-tetradecahydro-1H-cyclopropa[i]pyrrolo[1,2-e][1,5,8]oxadiazacyclopentadecin-6-yl)carbamate]	–	0.51 to 1	–	1.01 to 5
CC[C@@H]1OCCC/C=C\[C@@H]2C[C@@]2(C(=O)NS(=O)(=O)C2(C)CC2)NC(=O)[C@@H]2C[C@@H](Oc3ncc(OC)c4ccccc34)CN2C(=O)[C@H]1NC(=O)OC(C)(C)C(F)(F)F [Compound 1011]	–	0.51 to 1	–	0.51 to 1
CC[C@@H]1O[C@H](C)CC/C=C\[C@@H]2C[C@@]2(C(=O)NS(=O)(=O)C2(CF)CC2)NC(=O)[C@@H]2C[C@@H](Oc3nccc4cc(OC)c(F)cc34)CN2C(=O)[C@H]1NC(=O)OC(C)(C)C(F)(F)F [Compound 1012]	–	1.01 to 5	–	1.01 to 5
CC[C@@H]1O[C@H](C)CC/C=C\[C@@H]2C[C@@]2(C(=O)NS(=O)(=O)C2(CF)CC2)NC(=O)[C@@H]2C[C@@H](Oc3nc(OC)cc4cc(OC)ccc34)CN2C(=O)[C@H]1NC(=O)OC(C)(C)C(F)(F)F [Compound 1013, 1,1,1-trifluoro-2-methylpropan-2-yl ((2R,6S,7S,9R,13aS,14aR,16aS,Z)-2-((3,6-dimethoxyisoquinolin-1-yl)oxy)-7-ethyl-14a-(((1-(fluoromethyl)cyclopropyl)sulfonyl)carbamoyl)-9-methyl-5,16-dioxo-2,3,5,6,7,9,10,11,13a,14,14a,15,16,16a-tetradecahydro-1H-cyclopropa[i]pyrrolo[1,2-e][1,5,8]oxadiazacyclopentadecin-6-yl)carbamate]	–	1.01 to 5	–	1.01 to 5
CC[C@@H]1O[C@H](C)CC/C=C\[C@@H]2C[C@@]2(C(=O)NS(=O)(=O)C2(CF)CC2)NC(=O)[C@@H]2C[C@@H](Oc3ncc(OC)c4ccccc34)CN2C(=O)[C@H]1NC(=O)OC(C)(C)C(F)(F)F [Compound 1014]	–	1.01 to 5	–	1.01 to 5
